Experimental data reported in patent publication US20150174193A1, “AGENTS FOR TREATING CYSTIC FIBROSIS” (INSERM, priority 2012, published 2015).
“Also recorded” adds a separate entry of the source.

Columns and labels:
[1] = test system: neutrophil serine proteases (HNE, Pr3 and CG); experiment: Proteases activities and inhibition in CF sputum, overall comparison of treatments; type: biochemical, human; conditions: compared with pLK of higher MW (40,000-50,000 Da)
Method: (§1) Sputum processing-CF sputum was collected into 50 ml Falcon® tubes by physiotherapy and processed immediately. Sputum was diluted with 3 volumes of PBS per gram and homogenized to obtain a crude homogenate that was kept on ice. An aliquot of each homogenate was incubated for 2 h in low-binding microtubes with 400 μg/ml DNase or with 1.5 mg/ml of poly-L-Lysine (pLK) or PEGylated pLK (PEG-g-pLK) under gentle stirring at room temperature, then layered on a glass slide for cell counting by trypan blue exclusion and visual aspect under the optical microscope. Different sizes of pLK were tested (pLK, HBr of either 500-2,000 Da, 1000-5,000 Da, 4,000-15,000 Da and 40,000-50,000 Da molecular weight). PEG-g-pLK was pLK of 40,000-50,000 Da molecular weight grafted with one mPEG molecule of 5,000 Da.
Proteases activities were measured as described in (26) with the specific FRET (fluorescence resonance energy transfer) substrates of HNE, Pr3 and CG: Abz-APEEIMRRQ-YNO2, Abz-VADnVADQ-EDDnp and Abz-TPFSGQ-YNO2 respectively (λex=320 nm and λem=420 nm). The concentrations of active proteases in biological samples were determined by comparing the rates of hydrolysis of their specific substrates with those of commercial titrated proteases under the same experimental conditions. […]

control mice = type: in vivo, mouse
Text: The objective of the study was to identify the nature and the dose of polycations to be aerosolized safely in control mice.
In vivo assessment of polycations toxicity has been done by cytologic analysis of bronchoalveolar lavage fluids (BALFs), quantification of proinflammatory cytokines (IL6 and KC) and lung anatomopathology.
Aerosol administration of different doses of pLK was done using a Microsprayer®. Mice were killed at day 2 and day 5 and bronchoalveolar lavage fluids (BALF) were obtained with instillation of 5×0.5 mL of sterile PBS into the lungs. Lungs were perfused with 4% formaldehyde for histological studies. Cells were collected after centrifugation of BALFs, suspended in PBS, and analyzed by flow cytometry. The supernatant was used for cytokine quantification using commercially available ELISA kits.

Beas-2B cells = experiment: In vitro cellular toxicity in Beas-2B cell cultures; type: cell-based; conditions: in vitro cultures of Beas-2B cells
CF sputum = CF sputum homogenate treatment: visual aspect and cell counting; parameters: species or system human; conditions: for morphological aspect of the sputum after treatment: CF sputum homogenate, 2 h, 400 μg/ml DNase or 1.5 mg/ml pLK
Method: as §1
The increased viscosity of mucus in the CF lung leads to lung obstruction and subsequent decrease in lung function. Because DNA is a major component of CF lung secretions that contributes to their viscosity, rhDNase has been used for long by CF patients as a liquefying expectorant (28). A possible other mean to fluidize lung secretions could be through the condensation of extracellular DNA by positively charged polymers. We checked this hypothesis using poly-L-lysine (pLK) and comparing the rheological properties of CF sputa before and after treatment by pLK. Then we compared the results with those obtained using DNase in the same conditions.

extracellular DNA = experiment: Quantification of extracellular DNA in CF sputum; parameters: species or system human; conditions: for amount of extracellular DNA: CF sputum after treatment, EvaGreen
Method: as §1
Extracellular DNA is quantified with the non-cell-permeant fluorochrome EvaGreen™ dsDNA reagent (λex=488 nm and λem=520 nm).

HNE = target: T1, HNE (Homo sapiens, UniProt P08246); experiment: HNE activity in whole CF sputa and its inhibition by exogenous inhibitors; type: biochemical; conditions: after treatment of whole CF sputum
T1 construct: Aliquots of sputum homogenates containing peptidases in the 10 nanomolar range; from tissue; host or cells: sputum of cystic fibrosis patients (crude homogenate in PBS)
T1 sequence (P08246 30-247 limits assumed): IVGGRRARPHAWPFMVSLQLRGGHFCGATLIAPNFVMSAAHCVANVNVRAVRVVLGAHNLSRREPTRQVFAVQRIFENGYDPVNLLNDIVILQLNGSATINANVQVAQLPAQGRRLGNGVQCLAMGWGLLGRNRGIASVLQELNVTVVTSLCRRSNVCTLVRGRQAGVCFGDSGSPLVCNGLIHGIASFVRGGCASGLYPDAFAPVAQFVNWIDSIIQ
Method: (§2) Proteases activities were measured as described in (26) with the specific FRET (fluorescence resonance energy transfer) substrates of HNE, Pr3 and CG: Abz-APEEIMRRQ-YNO2, Abz-VADnVADQ-EDDnp and Abz-TPFSGQ-YNO2 respectively (λex=320 nm and λem=420 nm). The concentrations of active proteases in biological samples were determined by comparing the rates of hydrolysis of their specific substrates with those of commercial titrated proteases under the same experimental conditions. HNE and Pr3 were titrated as described in (27) and CG was titrated with HNE-titrated recombinant human secretory leukocyte protease inhibitor.
(§3) Aliquots of sputum homogenates containing peptidases in the 10 nanomolar range, were incubated for 30 min at room temperature with increasing amounts of inhibitors up to a (I)/(E) molar ratio of about 40. The low Mr recombinant inhibitor EPI-hNE4 or α1-proteinase inhibitor (α1-Pi) were used to inhibit HNE, while α1-antichymotrypsin (ACT) was used to inhibit CG; Pr3 was inhibited with α1-Pi after samples had been incubated with a 1000-fold molar excess of EPI-hNE4 to avoid the α1-Pi interacting with HNE (8).

Pr3 = target: T2, Pr3 (Homo sapiens, UniProt P24158); experiment: Pr3 activity in whole CF sputa and its inhibition by α1-Pi; type: biochemical; conditions: after treatment of whole CF sputum
T2 construct: Aliquots of sputum homogenates containing peptidases in the 10 nanomolar range; from tissue; host or cells: sputum of cystic fibrosis patients (crude homogenate in PBS)
T2 sequence (P24158 28-248 limits assumed): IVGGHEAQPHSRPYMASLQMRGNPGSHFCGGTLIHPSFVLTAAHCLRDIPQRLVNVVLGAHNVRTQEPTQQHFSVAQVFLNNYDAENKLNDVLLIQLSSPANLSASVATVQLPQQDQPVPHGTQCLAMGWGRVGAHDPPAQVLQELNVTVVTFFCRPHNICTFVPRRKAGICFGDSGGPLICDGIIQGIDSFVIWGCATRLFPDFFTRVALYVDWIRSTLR
Method: as §2, §3

CG = target: T3, CG (Homo sapiens, UniProt P08311); experiment: CG activity in whole CF sputa and its inhibition by ACT; type: biochemical; conditions: after treatment of whole CF sputum
T3 construct: Aliquots of sputum homogenates containing peptidases in the 10 nanomolar range; from tissue; host or cells: sputum of cystic fibrosis patients (crude homogenate in PBS)
T3 sequence (P08311 21-243 limits assumed): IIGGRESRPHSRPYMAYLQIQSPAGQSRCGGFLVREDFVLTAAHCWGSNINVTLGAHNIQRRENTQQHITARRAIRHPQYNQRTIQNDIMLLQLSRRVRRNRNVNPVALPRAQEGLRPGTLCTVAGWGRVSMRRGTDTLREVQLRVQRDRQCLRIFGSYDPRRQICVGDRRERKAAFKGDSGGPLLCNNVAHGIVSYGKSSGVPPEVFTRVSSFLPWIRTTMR
Method: as §2, §3

[2] = test system: S. aureus (strain CIP 103811); experiment: Antimicrobial test and scanning electron microscopy, S. aureus; type: cell-based, Staphylococcus aureus; conditions: for bactericidal effect (CFU): 6×10^6 bacteria, 3 h, 150 μl PBS, 110 μg DNase or 2 μg pLK
Method: (§4) The bacterial count was determined by the measure of OD600nm.
(§5) 6×10^6 bacteria were incubated in low-binding 96-wells microplates 3 h in 150 μl PBS containing 110 μg of DNase or 2 μg of pLK (MW 40,000-50,000 Da). Aliquots of the media were then collected and serial dilutions in PBS were laid on agar plates. CFUs were numbered after incubation at 37° C. Extracellular DNA in the remaining media was quantified as previously described as a marker of bacterial wall permeability.
(§6) 6×10^6 bacteria were settled on polylysine-coated glass slides and treated (or not) with DNase or pLK (pLK of 40,000-50,000 Da). They were then fixed with 1% (v/v) glutaraldehyde and 4% (v/v) paraformaldehyde in 0.1 M PBS, pH 7.4, post-fixed in 2% (v/v) osmium tetroxide, dehydrated in a graded acetone series, dried to the critical point using carbon dioxide, and sputter coated with platinum.

[3] = test system: P. aeruginosa (strain PAO1); experiment: Antimicrobial test and scanning electron microscopy, P. aeruginosa; type: cell-based, Pseudomonas aeruginosa; conditions: for bactericidal effect (CFU): 6×10^6 bacteria, 3 h, 150 μl PBS, 110 μg DNase or 2 μg pLK
Method: as §4, §5, §6

[4] = aerosol 2.4 mg/kg (66 μg in 50 μL, about 130 μM), Mann-Whitney test

In the case of poly-L-lysine [pLK 500-2,000 Da], the “efficiency of pLK of different sizes” value [1] is reported as “far less efficient”.

For poly-L-lysine [pLK (4-15 kDa)], the “efficiency of pLK of different sizes” value ([1]; listed as pLK 4,000-15,000 Da) was “same results as those with higher MW”, the “BALF cellularity, treated vs control mice” value (control mice; [4]) was “no significant differences” and the “cytokines quantification (IL6 and KC) in BALF, treated vs control mice” value (control mice; [4]) was “no significant differences”. For the same molecule, the “broncho-interstitial inflammation (histological study)” value (control mice; aerosol 2.4 mg/kg, day 2, both in treated and in control groups) was “minimal broncho-interstitial inflammation”, the “lung lesion (histological study)” value (control mice; aerosol 2.4 mg/kg, day 2 and day 5) was “no lung lesion” and the cellular toxicity (Beas-2B cells) was “can be observed”. For the same molecule, the “in vitro toxicity threshold” value (Beas-2B cells) was 5 µM.

For poly-L-lysine [pLK], the “morphological aspect of the sputum after treatment” value (CF sputum) was “fractionation of the sputum in dense aggregates and a very fluid phase”, the “apparent cell count in sputum homogenate” value (CF sputum; trypan blue exclusion, neutrophils found in aggregates) was “apparent decrease” and the “amount of extracellular DNA” value (extracellular DNA) was “important decrease”. The “DNA degradation in treated sputum” value (extracellular DNA; extracellular content restored after addition of dextran sulfate) was “not degraded”, the “elastase activity in whole sputum” value (HNE) was “dramatic increase; also recorded: increase of elastase activity” and the “inhibition of elastase activity by elastase inhibitors (α1-Pi)” value (HNE) was “stoichiometrically inhibited”. The “activity of PR3” value (Pr3) was “Neither pLK nor DNase treatments significantly affected”, the “inhibition of PR3 by α1-Pi” value (Pr3) was “Neither pLK nor DNase treatments significantly affected” and the “CG inhibition by ACT” value (CG) was “significantly improved”. For the same molecule, the “bactericidal effect (CFU)” value [2] was “significant bactericidal effect”, the “bacterial wall permeabilization (extracellular DNA, non-cell permeant fluorophore)” value ([2]; S. aureus) was “no wall permeabilization” and the “morphology of the bacteria (scanning electron microscopy)” value (from here on “morphology of the bacteria”) ([2]; S. aureus) was “less marked”. For the same molecule, the “bactericidal effect (CFU)” value [3] was “significant bactericidal effect”, the “bacterial wall permeabilization (extracellular DNA, non-cell permeant fluorophore)” value ([3]; P. aeruginosa) was “disruption of the bacterial wall” and the “morphology of the bacteria” value ([3]; P. aeruginosa) was “significant modification of the morphology; also recorded: spiculated surface”.

B1: DNase: DNase, most widely used mucoactive agent for CF patients; comparator (protein, UniProt P24855 23-282, looked up)
Deoxyribonuclease-1: LKIAAFNIQTFGETKMSNATLVSYIVQILSRYDIALVQEVRDSHLTAVGKLLDNLNQDAPDTYHYVVSEPLGRNSYKERYLFVYRPDQVSAVDSYYYDDGCEPCGNDTFNREPAIVRFFSRFTEVREFAIVPLHAAPGDAVAEIDALYDVYLDVQEKWGLEDVMLMGDFNAGCSYVRPSQWSSIRLWTSPTFQWLIPDSADTTATPTHCAYDRIVVAGMLLRGAVVPDSALPFNFQAAYGLSDQLAQAISDHYPVEVMLK
B1 was tested, and the “morphological aspect of the sputum after treatment” value (CF sputum) was “no morphological change”, the “amount of extracellular DNA” value (extracellular DNA) was “important decrease” and the “elastase activity in whole sputum” value (HNE) was “dramatic increase; also recorded: increase of elastase activity”. For the same molecule, the “inhibition of elastase activity by elastase inhibitors (α1-Pi)” value (HNE) was “completely and stoichiometrically inhibited”, the “activity of PR3” value (Pr3) was “Neither pLK nor DNase treatments significantly affected” and the “inhibition of PR3 by α1-Pi” value (Pr3) was “Neither pLK nor DNase treatments significantly affected”. For the same molecule, the “CG inhibition by ACT” value (CG) was “pLK, unlike DNase, significantly improved”, the “bactericidal effect (CFU)” value [2] was “no antimicrobial properties” and the “morphology of the bacteria” value ([2]; S. aureus) was “nor it affected the morphology”. The “bactericidal effect (CFU)” value [3] was “no antimicrobial properties” and the “morphology of the bacteria” value ([3]; P. aeruginosa) was “nor it affected the morphology”.
